In the assay the target is T1, Chicken egg white lysozyme (CEWLZM) (Gallus gallus, UniProt P00698).
T1 construct: gene LYZ
The experiment in a line: SPR kinetics, CEWLZM amine-coupled on MUA gold chip, TA […], PBS pH […]°C. The assay is classed as binding.

T1 sequence (P00698 19-147): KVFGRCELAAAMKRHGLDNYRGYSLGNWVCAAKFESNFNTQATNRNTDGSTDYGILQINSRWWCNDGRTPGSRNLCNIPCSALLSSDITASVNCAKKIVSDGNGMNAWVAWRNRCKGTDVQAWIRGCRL

A word on the Kd: it is a measure of binding affinity in units of concentration. Read a high Kd as lower affinity. For the molecule `O=C(OC[C@H]1O[C@@H](OC(=O)c2cc(O)c(O)c(OC(=O)c3cc(O)c(O)c(O)c3)c2)[C@H](OC(=O)c2cc(O)c(O)c(OC(=O)c3cc(O)c(O)c(O)c3)c2)[C@@H](OC(=O)c2cc(O)c(O)c(OC(=O)c3cc(O)c(O)c(O)c3)c2)[C@@H]1OC(=O)c1cc(O)c(O)c(OC(=O)c2cc(O)c(O)c(O)c2)c1)c1cc(O)c(O)c(OC(=O)c2cc(O)c(O)c(O)c2)c1` [TA, tannic acid], the affinity, expressed as Kd, was 41.7 µM.

For the origin of these results see article PMC11521726, “Surface plasmon resonance, molecular docking, and molecular dynamics simulation studies of lysozyme interaction with tannic acid” (Food Science & Nutrition, 2024).
